Laboratory results reported in patent US5874235A, “Screening assays for cancer chemopreventative agents” (The Johns Hopkins University, priority 1997, dated 1999).

Tested on: immortalized human keratinocytes (HaCat)
Test: Apoptosis in immortalized keratinocytes
Assay type: cell-based
Conditions: 48 h, read-out: cells that had undergone apoptosis
Procedure: This ability of SUS is not limited to colon cancer cells; primary fibroblasts and immortalized keratinocytes can increase ceramide levels and undergo apoptosis in response to SUS. […] Forty-eight hours after exposure to 200 μM SUS greater than 70% of the cells had undergone apoptosis and ceramide levels were 8.2 and 4.7 fold increased in HDF and HaCat cells, respectively. This is consistent with NSAIDs' ability to reduce tumor formation in a variety of tissues (19) and their adverse effects on normal gastric mucosa, but it fails to explain the apparent greater sensitivity of tumor cells. The in vivo effect will likely depend on the local concentration of the NSAID in the incipient tumor microenvironment as well as the target cell's "lipid biostat" (20). The fact that the concentration of SUS is higher in the intestines than in other organs, due to enterohepatic circulation and due to the metabolic activation of sulindac to SUS by gut flora (21), may be responsible for its particular efficacy in intestinal tumorigenesis.

**Q.** `CSc1ccc(/C=C2/C(C)=C(CC(=O)O)c3cc(F)ccc32)cc1` [SUS, sulindac sulfide] was tested. Which cytotoxicity at 200 µM did it give?
**A.** > 70%
